Here are results for three substances from publication PMC3982558, “Influence of the π-coordinated arene on the anticancer activity of ruthenium(II) carbohydrate organometallic complexes” (Frontiers in Chemistry, 2013).

This experiment has as its target T1, cathepsin B (Bos taurus, UniProt P07688).
T1 construct: gene CTSB; Crude bovine spleen cathepsin B (Sigma C6286)
Nature of the experiment: colorimetric cathepsin B assay (Na-CBZ-L-lysine p-nitrophenyl ester), […] h preincubation. The experiment is classed as biochemical. As to conditions: read-out: IC50 values/μM Cat B.
As to “dichlorido(η^6-p-cymene)(3,5,6-bicyclophosphite-1,2-O-isopropylidene-α-D-glucofuranose)ruthenium(II) [1a]”, the IC50 was 1.5 ± 0.2 µM. Under “dichlorido(η^6-p-cymene)(3,5,6-bicyclophosphite-1,2-O-cyclohexylidene-α-D-glucofuranoside)ruthenium(II) [1b]” stands 4 ± 0.6 µM.

For the substance “Dichlorido(η^6-biphenyl)(3,5,6-bicyclophosphite-1,2-O-cyclohexylidene-α-D-glucofuranose)ruthenium(II) [compound 6]”, the IC50 came to 8 ± 0.4 µM.
